The test system of series [1] is Infectious bronchitis (corona virus). The experiment in a line: Administration test to broiler chicken 2 (farm). To be noted: antibiotic administered before the Impact treatment. The format is in vivo, broiler chicken (Ross). On the procedure: In the second test, referring to <Table 3> in the below, infectious bronchitis (corona virus) occurred among 24,000 of Ross breeds at the age of 20 days at the broiler chicken consignment farm mentioned above. […] For the test, the product of the present invention was fed at the recommended dosage and was administered in the same way for 3 days.

Series [2] has as its system Staphylococcus aureus ATCC 6538. The series can be described thus: In vitro antibacterial power test (KFDA guidelines for external disinfectants), 5 minutes contact. To be noted: inoculum 1.0 × 10^3 CFU/mL. Format: cell-based. An excerpt:
(§1) The <Table 1> below is based on the official test report of a test that was requested to and performed by the Korea Analytical Testing Research Institute as a test institution. […] In this case, an inhibition rate (%) of the test result is as follows: Inhibition Rate (%)=(Number of Bacteria in Control Group−Number of Bacteria in Sample Group)/Number of Bacteria in Control Group.

The subject of series [3] is Salmonella Typhimurium ATCC 14028. The series is described as above. The settings on record: inoculum 1.1 × 10^3 CFU/mL. Format: cell-based.
Text: as §1

The test system of series [4] is Escherichia coli (E. coli) ATCC 8739. The description is as above. The format is cell-based. The settings on record: inoculum 1.3 × 10^3 CFU/mL.
Text: as §1

Data on 1 compound can be found in US20240016834A1, “ANTIMICROBIAL AGENT COMPOSITION AND MANUFACTURING METHOD AND PRODUCT THEREOF” (priority 2020, published 2024).

Regarding `CC1(C)S[C@@H]2[C@H](NC(=O)[C@H](N)c3ccccc3)C(=O)N2[C@H]1C(=O)O` [Ampicillin 100, ampicillin], the respiratory symptoms result in series [1] is on record as “symptoms persisted”. The figures for the “Inhibition rate (%) of number of viable cells after 5 minutes [Antibacterial power]” value in series [2], in series [3] and in series [4] were “(94.6%)”, “(98.6%)” and “(99.9%)”, respectively. In addition, the “number of viable cells after 5 minutes” value in series [2] (control group 1.5 × 10^3) is reported as 8.1 × 10^1 CFU/mL; in series [3] (control group 1.6 × 10^3), 2.1 × 10^1 CFU/mL.
